This experiment deals with human transferrin receptor (hTfR) (Homo sapiens, UniProt P02786). Briefly: SPR measurement under pH 7.4 conditions (Biacore T200, CM3 chip, hTfR captured by His Tag antibody). The class given is binding. The settings on record: SPR, pH 7.4. As for the experimental part: Molecular interactions between the synthesized peptides and the transferrin receptor (hTfR) were evaluated by surface plasmon resonance (SPR) using the following method. The specific assay procedure is described below.
Sequence of human transferrin receptor (hTfR) (P02786 whole entry): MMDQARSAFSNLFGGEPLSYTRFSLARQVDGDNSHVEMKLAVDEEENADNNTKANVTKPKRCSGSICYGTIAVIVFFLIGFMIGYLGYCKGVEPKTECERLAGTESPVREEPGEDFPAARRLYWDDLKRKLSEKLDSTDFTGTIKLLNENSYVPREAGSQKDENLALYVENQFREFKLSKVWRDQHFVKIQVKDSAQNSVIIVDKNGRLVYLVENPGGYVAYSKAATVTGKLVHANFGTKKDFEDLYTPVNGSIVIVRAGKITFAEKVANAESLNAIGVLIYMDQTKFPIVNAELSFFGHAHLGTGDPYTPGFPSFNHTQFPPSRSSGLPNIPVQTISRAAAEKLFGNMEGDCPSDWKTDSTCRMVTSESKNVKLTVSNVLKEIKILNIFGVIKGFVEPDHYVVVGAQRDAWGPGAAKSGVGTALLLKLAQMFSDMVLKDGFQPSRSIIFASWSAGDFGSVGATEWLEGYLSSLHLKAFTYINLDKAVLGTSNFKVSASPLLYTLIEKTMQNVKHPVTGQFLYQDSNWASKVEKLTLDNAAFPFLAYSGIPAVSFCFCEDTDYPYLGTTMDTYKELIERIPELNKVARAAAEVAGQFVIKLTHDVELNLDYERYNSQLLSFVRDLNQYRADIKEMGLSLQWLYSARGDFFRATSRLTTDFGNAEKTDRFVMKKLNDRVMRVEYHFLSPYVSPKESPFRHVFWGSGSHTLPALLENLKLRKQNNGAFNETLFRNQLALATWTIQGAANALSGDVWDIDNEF
An CM3 sensor chip (Cytiva) was inserted into BiacoreT200 (Cytiva), then a priming operation was performed three times by using a running buffer: HBS-P+, pH7.4 (Cytiva), and an equilibrium state was created at a flow rate of […]. Ligand immobilization was performed at a flow rate of 10 µL/min. After mixing 50 µL each of 60 mM EDC solution (Cytiva) and 650 mM NHS solution (Cytiva), the mixture was reacted at a flow rate of 10 µL/min for 420 seconds. 150 µL of […] THE His Tag Antibody, mAb, Mouse (GenScript) was prepared by diluting with 10 mM acetic acid solution (pH 5.0), and reacted at a flow rate of 10 µL/ min for 420 seconds. Then, THE His Tag Antibody, mAb, Mouse (GenScript) was immobilized as a capture molecule on the CM3 sensor chip. After immobilization, capping was performed by reacting with 1.0 M ethanolamine solution (Cytiva) at a flow rate of 10 µL/min for 420 seconds. 300 nM hTfR was captured at a flow rate of 10 µL/min, a peptide solution prepared at 10 mM in DMSO was diluted with running buffer to achieve a final concentration of 10 µM, and peptide solutions at 250 nM, 125 nM, 62.5 nM, 25 nM, and 12.5 nM were prepared. . The peptide samples were reacted at a flow late of 30 µL/min for 120 seconds, followed by dissociation for 600 seconds. The kinetics of the peptide against hTfR was obtained by SPR measurement for the above samples.
The kinetic evaluation model was single-cycle kinetics, and curve fitting was performed using Biacore T200 Evaluation Software Version 3.0 (Cytiva). The binding of the peptide to hTfR was evaluated by performing curve fitting on the obtained sensorgram by the least squares method and obtaining the kon value, the koff value, and the KD value.
Background: In SPR one partner is held on a chip, and binding of the other changes the refractive index at the surface.

Where [1] appears, read: peptide with the linker named in the table, read-out: hTfR SPR pH7.4 KD.
Where [2] appears, read: Table 2-1-2, read-out: hTfR SPR pH7.4 KD(n M).

The results in this text go back to patent publication EP4667483A1, “HUMAN TRANSFERRIN RECEPTOR-BINDING PEPTIDE” (JCR Pharmaceuticals Co., Ltd., priority 2023, dated 2024).

Structures are written as SMILES. Like-named read-outs stand apart in the source and are kept apart here. Numbered stars: 1 amine (or outer) side, 2 acyl side, 3 side chain; on linkers, the order of the positions; unused ones are H or OH. Bridge positions count the residues as written; N and C are the ends. Square brackets hold non-standard residues; d marks the D form. Peptide text beside a SMILES is read from it. * marks the point of attachment. Trp(1-CH2COOH) = N[C@@H](Cc1cn(CC(=O)O)c2ccccc12)C(=O)O; CH2CON(CH2CH2)2NCH2COOH = O=C(O)CN1CCN(C(=O)C*)CC1; NMePhe(4-COOH) = CN[C@@H](Cc1ccc(C(=O)O)cc1)C(=O)O; X1 = O=C([C@H](Cc1cccc(C(=O)[*:3])c1)N[*:1])[*:2]; Phe(3-COOH) = N[C@@H](Cc1cccc(C(=O)O)c1)C(=O)O; Trp(7-aza) = N[C@@H](Cc1c[nH]c2ncccc12)C(=O)O; NH(CH2CH2O)8Me = COCCOCCOCCOCCOCCOCCOCCOCCN*; NMePhe(3-Cl) = CN[C@@H](Cc1cccc(Cl)c1)C(=O)O; 3Pal(6-NH2) = Nc1ccc(C[C@H](N)C(=O)O)cn1; NMeW = CN[C@@H](Cc1c[nH]c2ccccc12)C(=O)O; NMe3Pal = CN[C@@H](Cc1cccnc1)C(=O)O; NMeY = CN[C@@H](Cc1ccc(O)cc1)C(=O)O; Nva(3-Et) = CCC(CC)[C@H](N)C(=O)O; NMeF = CN[C@@H](Cc1ccccc1)C(=O)O; PEG4 = NCCOCCOCCOCCOCCC(=O)O; Carboxymethyl = O=C(O)C*

As to `CCC(CC)[C@@H]1NC(=O)[C@H](Cc2ccc(OCC(=O)O)cc2)NC(=O)[C@H](Cc2ccc(N)nc2)NC(=O)[C@H](CC(N)=O)NC(=O)[C@H](Cc2c[nH]c3ccccc23)NC(=O)[C@H](C(C)C)NC(=O)[C@H](Cc2cccc(Cl)c2)N(C)C(=O)[C@H](C(C)C)NC(=O)[C@H](C)NC(=O)CSC[C@@H](C(=O)NCCOCCOCCOCCOCCC(N)=O)NC(=O)[C@H](Cc2ccc(C(=O)O)cc2)N(C)C(=O)[C@H](Cc2cccc(C(=O)O)c2)NC(=O)[C@H](CCCNC(=N)N)NC(=O)[C@H](CCC(=O)NCCOCCOCCOCCOCCOCCOCCOCCOC)NC(=O)[C@H]([C@@H](C)CC)NC1=O` [compound 85] ({CH2CO}-AV[NMePhe(3-Cl)]VWN[3Pal(6-NH2)]Y(Carboxymethyl)[Nva(3-Et)]IE(NH(CH2CH2O)8Me)R[Phe(3-COOH)][NMePhe(4-COOH)]C[PEG4]-NH2; thioether N-15), under “read-out: hTfR SPR pH7.4 KD”, the Kd (commonly a measure of binding affinity in units of concentration) stood at 234 nM.
For the compound `CCC(CC)[C@@H]1NC(=O)[C@H](Cc2ccc(OCC(=O)O)cc2)NC(=O)[C@H](Cc2ccc(O)cc2)NC(=O)[C@H](CC(N)=O)NC(=O)[C@H](Cc2cn(CC(=O)O)c3ccccc23)NC(=O)[C@H](C(C)C)NC(=O)[C@H](Cc2cccc(Cl)c2)N(C)C(=O)[C@H](C(C)C)NC(=O)[C@H](C)NC(=O)CSC[C@@H](C(=O)NCCOCCOCCOCCOCCC(N)=O)NC(=O)[C@H](Cc2cccnc2)N(C)C(=O)[C@H](Cc2cccc(C(=O)O)c2)NC(=O)[C@H](CCCNC(=N)N)NC(=O)[C@H](CCC(N)=O)NC(=O)[C@H]([C@@H](C)CC)NC1=O` [compound 97] ({CH2CO}-AV[NMePhe(3-Cl)]V[Trp(1-CH2COOH)]NYY(Carboxymethyl)[Nva(3-Et)]IQR[Phe(3-COOH)][NMe3Pal]C[PEG4]-NH2; thioether N-15), under setting [1], the Kd was 22.6 nM.
Consider `CC[C@H](C)[C@@H]1NC(=O)[C@H](Cc2ccc(OCC(=O)N3CCN(CC(=O)O)CC3)cc2)NC(=O)[C@H](Cc2ccc(N)nc2)NC(=O)[C@H](CC(N)=O)NC(=O)[C@H](Cc2c[nH]c3ncccc23)NC(=O)[C@H](C(C)C)NC(=O)[C@H](Cc2cccc(Cl)c2)N(C)C(=O)[C@H](C(C)C)NC(=O)[C@H](C)NC(=O)CSC[C@@H](C(=O)NCCOCCOCCOCCOCCC(N)=O)NC(=O)[C@H](Cc2ccc(O)cc2)N(C)C(=O)[C@H](Cc2cccc(C(=O)O)c2)NC(=O)[C@H](CCCNC(=N)N)NC(=O)[C@H](CCC(=O)NCCOCCOCCOCCOCCOCCOCCOCCOC)NC(=O)[C@H]([C@@H](C)CC)NC1=O` [compound 159] ({CH2CO}-AV[NMePhe(3-Cl)]V[Trp(7-aza)]N[3Pal(6-NH2)]Y(CH2CON(CH2CH2)2NCH2COOH)IIE(NH(CH2CH2O)8Me)R[Phe(3-COOH)][NMeY]C[PEG4]-NH2; thioether N-15), for which, under setting [2], the Kd came to 6.55 nM.
As for `CC[C@H](C)[C@@H]1NC(=O)[C@H](Cc2ccc(OCC(=O)N3CCN(CC(=O)O)CC3)cc2)NC(=O)[C@H](Cc2ccc(N)nc2)NC(=O)[C@H](CC(N)=O)NC(=O)[C@H](Cc2c[nH]c3ncccc23)NC(=O)[C@H](C(C)C)NC(=O)[C@H](Cc2cccc(Cl)c2)N(C)C(=O)[C@H](C(C)C)NC(=O)[C@H](C)NC(=O)CSC[C@@H](C(=O)NCCOCCOCCOCCOCCC(N)=O)NC(=O)[C@H](Cc2ccc(O)cc2)N(C)C(=O)[C@H](Cc2ccncc2)NC(=O)[C@H](CCCNC(=N)N)NC(=O)[C@H](CCC(=O)NCCOCCOCCOCCOCCOCCOCCOCCOC)NC(=O)[C@H]([C@@H](C)CC)NC1=O` [compound 153], the Kd under setting [2] was 44.3 nM.
As to `CC[C@H](C)[C@@H]1NC(=O)[C@H](Cc2ccc(O)cc2)NC(=O)[C@H](Cc2ccc(O)cc2)NC(=O)[C@H](CC(N)=O)NC(=O)[C@H](Cc2c[nH]c3ccccc23)N(C)C(=O)[C@H](C(C)C)NC(=O)[C@H](Cc2ccccc2)N(C)C(=O)[C@H](C(C)C)NC(=O)[C@H](C)NC(=O)CSC[C@@H](C(=O)NCCOCCOCCOCCOCCC(N)=O)NC(=O)[C@H](Cc2ccc(C(=O)O)cc2)N(C)C(=O)[C@H](Cc2cccc(C(=O)NCCOCCOCCOCCOCCC(=O)O)c2)NC(=O)[C@H](CCCNC(=N)N)NC(=O)[C@H](CCCCN)NC(=O)[C@H]([C@@H](C)CC)NC1=O` [compound 121] ({CH2CO}-AV[NMeF]V[NMeW]NYYIIKR[X1](PEG4)[NMePhe(4-COOH)]C[PEG4]-NH2; thioether N-15), the Kd under setting [1] amounted to 1.84 nM.
